Structures are written as SMILES.

The text below walks through data of patent EP0350948B1, “Porphyrin derivatives” (TOYOHAKKA KOGYO KABUSHIKI KAISHA, priority 1988, dated 1990).

Series [1] concerns nitrosoamine-induced pancreatic cancer. The experiment in a line: laser irradiation to the extirpated organ (excited fluorescent spectrum, N2-PLS measurement), tumor to tissue ratio. It is filed as in vivo, Golden hamsters. The note with it: i.v. 25 mg/kg bodyweight, organs extirpated at 24 hours after administration. The protocol: Golden hamsters (males, 5 per group, bodyweight approximately 150 g) were implanted subcutaneously tumor cells of the nitrosoamine-induced pancreatic cancer. After 14 to 21 days following implantation, animals were intravenously (i.v.) administered the test substance EG-Ga-DP-diGly (10 mg/ml) which had been diluted with phosphate buffer at 25 mg/kg bodyweight. At 24 hours after administration, the organs including the tumor were extirpated, irradiated with N2-pulsed laser (N2, 337 nm, 2 ns, 400 - 1000 nm), and measured of excited fluorescent spectrum. The wavelengths of 600 - 900 nm were studied using the peak wavelength of NADH at 470 nm as a reference. (N2-PLS measurement). […] (Tumor to tissue ratio).
Excited fluorescent spectra of the organs extirpated at 24 hours after administration were measured, and the peak wavelength at 600 - 900 nm was calculated by setting the peak wavelength at 470 nm as the reference 1. As fluorescence in Mn, Fe and Cu complexes is not sufficiently intense as to enable N2-PLS measurement, the extraction method was applied to these compounds. At 24 hours following administration, the organs were extracted with an organic solvent (such as chloroform-methanol) via acetone powder, and the obtained extract was measured of UV or HPLC to calculate the tumor to tissue ratio.

For series [2] the test system is unchanged. The experiment in a line: in vivo hemorrhagic necrosis effect. Details: species or system hamsters; key to Hemorrhagic necrosis effect: four scales of G4, G3, G2 and G1; four scales of G4, G3, G2 and G1; four scales of G4, G3, G2 and G1; four scales of G4, G3, G2 and G1. Conditions: for Hemorrhagic necrosis effect: intensity of hemorrhagic necrosis at 24 hours following i.v. administration, and pathological study. The protocol: Cancer bearing hamsters of Experiment 1 were i.v. administered the test substance C6-Ga-DP-diAsp (10) (10 mg/ml) which had been diluted with phosphate buffer at 25 mg/kg bodyweight and 12.5 mg/kg bodyweight respectively. The animals were exsanguinated and autopsied at 24 hours after administration, and observed.
The evaluation was based on the four scales of G4, G3, G2 and G1.

Take `CC1=C(CCC(=O)NC(CC(=O)O)C(=O)O)C2=NC1=Cc1c(C)c(C(C)OCCO)c3[n]1[Ga][n]1c(c(C)c(CCC(=O)NC(CC(=O)O)C(=O)O)c1=C2)=CC1=NC(=C3)C(C)=C1C(C)OCCO` (stereo not drawn) [(3) EG-Ga-DP-diAsp, 2,4-bis[1-(2-hydroxyethyloxy)ethyl]-Ga-deuteroporphynyl diaspartic acid]: in series [1], the tumor/tissue cancer/ kidney came out at 3.45, the tumor/tissue cancer/ liver came out at 3.00 and the tumor/tissue cancer/ lung came out at 2.87.

For `CCCCCCCCOC(C)C1=C(C)C2=Cc3c(C(C)OCCCCCCCC)c(C)c4[n]3[Mn][n]3c(c(C)c(CCC(=O)NC(CC(=O)O)C(=O)O)c3=CC3=NC(=C4)C(C)=C3CCC(=O)NC(CC(=O)O)C(=O)O)=CC1=N2` (stereo not drawn) [(36) C8-Mn-DP-diAsp, 2,4-bis(1-octyloxyethyl)-Mn-deuteroporphynyl diaspartic acid], the Hemorrhagic necrosis effect entry in series [2] is recorded as “G3”. On to `CCCCCCCCCCOC(C)C1=C(C)C2=Cc3c(C(C)OCCCCCCCCCC)c(C)c4[n]3[Mn][n]3c(c(C)c(CCC(=O)NCC(=O)NC(CC(=O)O)C(=O)O)c3=CC3=NC(=C4)C(C)=C3CCC(=O)NCC(=O)NC(CC(=O)O)C(=O)O)=CC1=N2` (stereo not drawn) [(39) C10-Mn-DP-diGly-diAsp, 2,4-bis(1-decyloxyethyl)-Mn-deuteroporphynyl diglycyldiaspartic acid], for which, in series [2], the Hemorrhagic necrosis effect entry is on record as “G2”. Same read-out and setting: the result for `CCCCCCCCCCOC(C)C1=C(C)C2=Cc3c(C(C)OCCCCCCCCCC)c(C)c4[n]3[Mn][n]3c(c(C)c(CCC(=O)NC(CC(C)C)C(=O)NC(CC(=O)O)C(=O)O)c3=CC3=NC(=C4)C(C)=C3CCC(=O)NC(CC(C)C)C(=O)NC(CC(=O)O)C(=O)O)=CC1=N2` (stereo not drawn) [(40) C10-Mn-DP-diLeu-diAsp, 2,4-bis(1-decyloxyethyl)-Mn-deuteroporphynyl dileucyldiaspartic acid] reads “G2”. As for `CCCCCCCCCCOC(C)C1=C(C)C2=Cc3c(C(C)OCCCCCCCCCC)c(C)c4[n]3[Mn][n]3c(c(C)c(CCC(=O)NC(Cc5ccccc5)C(=O)NC(CC(=O)O)C(=O)O)c3=CC3=NC(=C4)C(C)=C3CCC(=O)NC(Cc3ccccc3)C(=O)NC(CC(=O)O)C(=O)O)=CC1=N2` (stereo not drawn) [(41) C10-Mn-DP-diPhe-diAsp, 2,4-bis(1-decyloxyethyl)-Mn-deuteroporphynyl diphenylalanyldiaspartic acid], the Hemorrhagic necrosis effect entry in series [2] was “G2”. Regarding `CC(C)=CCC/C(C)=C/COC(C)C1=C(C)C2=Cc3c(C(C)OC/C=C(\C)CCC=C(C)C)c(C)c4[n]3[Mn][n]3c(c(C)c(CCC(=O)NC(CC(=O)O)C(=O)O)c3=CC3=NC(=C4)C(C)=C3CCC(=O)NC(CC(=O)O)C(=O)O)=CC1=N2` (stereo not drawn) [(42) C10(Gera)-Mn-DP-diAsp, 2,4-bis(1-geranyloxyethyl)-Mn-deuteroporphynyl diaspartic acid], the “photograph of cancer masses (Fig. 3)” value in series [2] (24 hours after administration) was “hemorrhagic necrosis”. The Hemorrhagic necrosis effect result in series [2] is on record as “G3”. Turning to `CC(C)=CCCC(C)CCOC(C)C1=C(C)C2=Cc3c(C(C)OCCC(C)CCC=C(C)C)c(C)c4[n]3[Mn][n]3c(c(C)c(CCC(=O)NC(CC(=O)O)C(=O)O)c3=CC3=NC(=C4)C(C)=C3CCC(=O)NC(CC(=O)O)C(=O)O)=CC1=N2` (stereo not drawn) [(43) C10(Citro)-Mn-DP-diAsp, 2,4-bis(1-citronellyloxyethyl)-Mn-deuteroporphynyl diaspartic acid], in series [2], the Hemorrhagic necrosis effect entry is listed as “G3”. The same measure, in the same setting: the value for `CC1=C(CCC(=O)NC(CC(=O)O)C(=O)O)c2cc3[nH]c(cc4nc(cc5[nH]c(cc1n2)c(C(C)OCCC(C)CCCC(C)C)c5C)C(C(C)OCCC(C)CCCC(C)C)=C4C)c(C)c3CCC(=O)NC(CC(=O)O)C(=O)O.[Mn]` (stereo not drawn) [(44) C10(H2Citro)-Mn-DP-diAsp, 2,4-bis(1-dihydrocitronellyloxyethyl)-Mn-deuteroporphynyl diaspartic acid] was “G4”.

Turning to `C=CC1=C(C)C2=Cc3c(C(C)OCCC(C)CCCC(C)C)c(C)c4[n]3[Mn][n]3c(c(C)c(CCC(=O)NC(CC(=O)O)C(=O)O)c3=CC3=NC(=C4)C(C)=C3CCC(=O)NC(CC(=O)O)C(=O)O)=CC1=N2` (stereo not drawn) [(45) C10(H2Citro,mono)-Mn-DP-diAsp, 2-(1-dihydrocitronellyloxyethyl)-4-ethenyl-Mn-deuteroporphynyl diaspartic acid], the Hemorrhagic necrosis effect entry in series [2] was “G2”.
